# Data: ChEMBL document CHEMBL4184307, “Identification of caffeoylquinic acid derivatives as natural protein tyrosine phosphatase 1B inhibitors from Artemisia princeps” (Bioorg Med Chem Lett, 2018)
# Assays:
# [1] = biological target: T1, Tyrosine-protein phosphatase non-receptor type 1 (Homo sapiens, UniProt P18031); experiment: (§1) Inhibition of PTP1B (unknown origin)
# T1 sequence (P18031 whole entry): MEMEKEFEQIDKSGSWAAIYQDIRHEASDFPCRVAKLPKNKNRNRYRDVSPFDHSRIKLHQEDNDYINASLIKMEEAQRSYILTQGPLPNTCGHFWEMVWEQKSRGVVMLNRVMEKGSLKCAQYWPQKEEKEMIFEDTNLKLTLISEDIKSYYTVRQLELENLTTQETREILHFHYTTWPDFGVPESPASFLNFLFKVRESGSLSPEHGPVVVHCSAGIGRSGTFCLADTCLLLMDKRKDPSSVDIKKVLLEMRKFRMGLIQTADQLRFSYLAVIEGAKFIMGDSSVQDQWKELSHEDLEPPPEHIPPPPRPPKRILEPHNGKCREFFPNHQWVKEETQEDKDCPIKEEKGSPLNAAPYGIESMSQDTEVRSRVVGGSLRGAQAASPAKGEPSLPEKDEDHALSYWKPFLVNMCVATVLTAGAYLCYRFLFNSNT
# [2] = biological target: T2, Tyrosine-protein phosphatase non-receptor type 1 (Homo sapiens) (UniProt P18031); experiment: as §1
# T2 sequence (whole entry): T1 sequence (P18031 whole entry)
# [3] = biological target: Dual specificity protein phosphatase 3 (Homo sapiens) (UniProt P51452); experiment: Inhibition of VHR (unknown origin) at 100 uM relative to control
# Dual specificity protein phosphatase 3 (Homo sapiens), sequence (P51452 whole entry, looked up): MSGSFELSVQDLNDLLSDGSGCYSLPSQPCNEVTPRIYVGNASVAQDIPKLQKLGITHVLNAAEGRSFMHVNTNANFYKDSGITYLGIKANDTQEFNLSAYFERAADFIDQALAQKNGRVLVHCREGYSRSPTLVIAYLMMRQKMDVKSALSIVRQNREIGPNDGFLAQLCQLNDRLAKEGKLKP
# [4] = biological target: T2, Tyrosine-protein phosphatase non-receptor type 1 (Homo sapiens); experiment: Inhibition of PTP1B (unknown origin) at 100 uM relative to control
# [5] = biological target: T3, Tyrosine-protein phosphatase non-receptor type 11 (Homo sapiens) (UniProt Q06124); experiment: Inhibition of SHP2 (unknown origin) at 100 uM relative to control
# T3 sequence (whole entry): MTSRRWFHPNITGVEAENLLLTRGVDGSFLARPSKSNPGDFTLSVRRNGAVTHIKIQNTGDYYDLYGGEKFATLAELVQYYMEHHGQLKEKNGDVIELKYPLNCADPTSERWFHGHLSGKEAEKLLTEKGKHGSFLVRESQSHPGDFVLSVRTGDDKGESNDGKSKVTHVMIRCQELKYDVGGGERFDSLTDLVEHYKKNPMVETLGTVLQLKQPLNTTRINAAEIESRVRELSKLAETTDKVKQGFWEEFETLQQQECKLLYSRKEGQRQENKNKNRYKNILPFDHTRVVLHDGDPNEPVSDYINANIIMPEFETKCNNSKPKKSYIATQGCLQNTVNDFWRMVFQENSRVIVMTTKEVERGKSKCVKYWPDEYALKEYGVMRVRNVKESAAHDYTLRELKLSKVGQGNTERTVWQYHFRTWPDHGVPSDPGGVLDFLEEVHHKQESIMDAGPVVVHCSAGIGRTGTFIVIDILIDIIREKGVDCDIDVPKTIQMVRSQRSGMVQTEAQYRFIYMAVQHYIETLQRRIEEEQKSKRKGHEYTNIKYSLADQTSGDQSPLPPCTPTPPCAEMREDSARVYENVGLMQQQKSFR
# [6] = biological target: T4, Tyrosine-protein phosphatase non-receptor type 2 (Homo sapiens) (UniProt P17706); experiment: Inhibition of TCPTP (unknown origin) at 100 uM relative to control
# T4 sequence (whole entry): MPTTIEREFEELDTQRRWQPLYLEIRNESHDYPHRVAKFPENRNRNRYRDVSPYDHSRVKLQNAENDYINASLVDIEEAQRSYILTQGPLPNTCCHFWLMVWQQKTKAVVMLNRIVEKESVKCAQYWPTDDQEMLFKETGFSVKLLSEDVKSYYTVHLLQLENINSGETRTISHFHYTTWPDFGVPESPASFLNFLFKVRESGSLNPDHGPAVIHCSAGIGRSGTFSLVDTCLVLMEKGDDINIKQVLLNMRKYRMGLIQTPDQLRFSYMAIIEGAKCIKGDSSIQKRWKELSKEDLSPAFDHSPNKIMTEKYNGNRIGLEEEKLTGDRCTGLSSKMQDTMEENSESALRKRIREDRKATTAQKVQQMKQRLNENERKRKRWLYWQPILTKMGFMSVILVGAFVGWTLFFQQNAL
# [7] = biological target: T5, Tyrosine-protein phosphatase non-receptor type 2 (Homo sapiens, UniProt P17706); experiment: Inhibition of TCPTP (unknown origin)
# T5 sequence (P17706 whole entry): T4 sequence (whole entry)
# [8] = biological target: Tyrosine-protein phosphatase non-receptor type 6 (Homo sapiens) (UniProt P29350); experiment: Inhibition of SHP1 (unknown origin) at 100 uM relative to control
# Tyrosine-protein phosphatase non-receptor type 6 (Homo sapiens), sequence (P29350 whole entry): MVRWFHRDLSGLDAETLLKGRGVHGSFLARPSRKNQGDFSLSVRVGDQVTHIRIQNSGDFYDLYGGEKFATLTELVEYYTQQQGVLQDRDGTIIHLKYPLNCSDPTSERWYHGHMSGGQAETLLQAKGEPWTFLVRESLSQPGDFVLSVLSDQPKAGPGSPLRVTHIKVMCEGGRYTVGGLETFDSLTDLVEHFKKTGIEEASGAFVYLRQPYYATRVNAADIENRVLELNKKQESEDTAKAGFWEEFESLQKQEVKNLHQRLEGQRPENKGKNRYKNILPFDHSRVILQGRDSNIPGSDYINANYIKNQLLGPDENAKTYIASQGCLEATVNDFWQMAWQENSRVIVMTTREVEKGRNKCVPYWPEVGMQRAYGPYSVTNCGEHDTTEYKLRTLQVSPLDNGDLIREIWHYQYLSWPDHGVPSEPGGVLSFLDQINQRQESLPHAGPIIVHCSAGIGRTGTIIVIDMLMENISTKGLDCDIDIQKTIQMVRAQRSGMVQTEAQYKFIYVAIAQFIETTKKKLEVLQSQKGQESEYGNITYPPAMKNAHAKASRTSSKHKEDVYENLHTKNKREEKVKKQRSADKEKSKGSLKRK
IC50 [1],inhibition [2],Compound,further results
37.9 µM,Dose-dependent effect,O=C(/C=C/c1ccc(O)c(O)c1)O[C@@H]1C[C@](O)(C(=O)O)C[C@@H](OC(=O)/C=C/c2ccc(O)c(O)c2)[C@H]1O,
,Dose-dependent effect,O=C(/C=C/c1ccc(O)c(O)c1)O[C@@H]1C[C@](O)(C(=O)O)C[C@@H](O)[C@H]1O [CHLOROGENIC ACID],inhibition [3]: 30.5%; inhibition [4]: 83.1%; inhibition [5]: 28.4%; inhibition [6]: 65.6%; IC50 [7]: 77.9 µM; inhibition [8]: 32%
59.4 µM,Dose-dependent effect,O=C(/C=C/c1ccc(O)c(O)c1)O[C@H]1[C@H](O)C[C@](O)(C(=O)O)C[C@H]1OC(=O)/C=C/c1ccc(O)c(O)c1,
56 µM,Dose-dependent effect,COC(=O)[C@]1(O)C[C@@H](O)[C@@H](OC(=O)/C=C/c2ccc(O)c(O)c2)[C@H](OC(=O)/C=C/c2ccc(O)c(O)c2)C1,
35.4 µM,Dose-dependent effect,"O=C(/C=C/c1ccc(O)c(O)c1)O[C@@H]1C[C@](OC(=O)/C=C/c2ccc(O)c(O)c2)(C(=O)O)C[C@@H](O)[C@H]1O [1,5-O-TRANS-DICAFFEOYLQUINIC ACID]",
,Dose-dependent effect,O=C(/C=C/c1ccc(O)c(O)c1)O[C@@H]1C[C@@](O)(C(=O)O)C[C@@H](O)[C@@H]1O,
43.9 µM,Dose-dependent effect,O=C(/C=C/c1ccc(O)c(O)c1)O[C@H]1[C@H](O)C[C@](O)(C(=O)O)C[C@H]1O,
42.7 µM,Dose-dependent effect,COC(=O)[C@]1(O)C[C@@H](OC(=O)/C=C/c2ccc(O)c(O)c2)[C@@H](O)[C@H](OC(=O)/C=C/c2ccc(O)c(O)c2)C1,
67.1 µM,Dose-dependent effect,COc1cc(/C=C/C(=O)O[C@H]2[C@H](O)C[C@](O)(C(=O)O)C[C@H]2OC(=O)/C=C/c2ccc(O)c(OC)c2)ccc1O,
41.5 µM,Dose-dependent effect,O=C(/C=C/c1ccc(O)c(O)c1)O[C@@H]1[C@H](O)C[C@@](O)(C(=O)O)C[C@H]1OC(=O)/C=C/c1ccc(O)c(O)c1,
